One assay deals with glioblastoma. The note with it: in vivo; cited from earlier work.
In assay [1] the test system is mouse glioma cell lines. Description: Acute growth inhibition assay (MTT) in mouse glioma cell lines. The format is cell-based. The conditions noted are these: concentrations up to 1 μM.
The subject of assay [2] is mouse glioma cell lines. Description: Clonogenic survival (clonogenicity) assay in mouse glioma cell lines. The class given is cell-based. The conditions noted are these: concentrations up to 1 μM.
For another assay, the system named is glioma cells. Description: Sensitization to irradiation in vitro (clonogenic survival). The format is cell-based, mouse.
Assay [3] deals with murine glioma cell invasiveness. Description: Murine glioma cell invasiveness in vitro without or with irradiation. The class given is cell-based, mouse. The conditions noted are these: without or with irradiation (2 Gy, 8 Gy). From the text: Next, we evaluated the motogenic activity of HGF/MET in response to irradiation in vitro. Low-dose irradiation (2 Gy) increased invasiveness in SMA-540 and SMA-560 cells whereas high-dose irradiation (8 Gy) reduced invasiveness in SMA-497 and SMA-560 cells.

The test system of assay [4] is SMA-560 gliomas. Description: Orthotopic syngeneic SMA-560 glioma model in vivo (survival, histology). More on the design: species or system mouse. The method, then:
B. Kaplan-Meier survival curve. C. […] Sections were counterstained with hematoxylin (blue).
Sections (8 μm thick) of tumor-bearing cryopreserved brains were prepared. The mean tumor size was determined by the largest tumor area in the horizontal plane on hematoxylin and eosin (H&E)-stained sections by multiplying the longest perpendicular diameters from a low-magnification (2.5×) image. Brain sections were immunostained with Ki-67 antibody (clone SP6, Epitomics, Burlingame, CA), anti-mouse CD31 antibody (clone MEC 13.3, BD Pharmingen, Franklin Lakes, NJ), anti-CD45 antibody (clone 30-F11; BioLegend), anti-CD3 (clone 17A2; BD Biosciences, San Jose, CA) or anti-CD11b (clone M1/70; BD Biosciences) and histofine simple stain mouse max pro anti-rabbit secondary antibody (Nichirei Biosciences, Tokyo, Japan) to determine proliferation. Anti-rat N-Histofine Simple Stain Mouse MAX PO (Nichirei Biosciences) and DAB chromogen were used to stain blood vessels. The percentage of Ki-67-positive tumor nuclei and the mean number of CD31-positive intratumoral vessels per high power field (×40 objective) were calculated using three randomly selected different microscopic fields of each section for three 3 mice per group. Alternatively, DAB-positive signals were quantified using the ImageJ software (https://imagej.nih.gov/) (Crowe and Yue, 2019).
(§1) All in vitro and in vivo experiments reported here were performed in biological replicates, i.e., in independent experiments and with different passage numbers of cell lines. Statistical significance was assessed by two-sided unpaired t-test or two-way ANOVA with Bonferroni post-testing (GraphPad Prism). Tumor size was analyzed using the Mann-Whitney U non-parametric test. Survival was analyzed using a Kaplan-Meier survival plot followed by a log-rank (Mantel-Cox) test. Differences were considered statistically significant when the p value was below 0.05.

The next assay has as its system mouse cytokines. Description: Proteome profiler cytokine array of SMA-560 tumor lysates ex vivo. The format is in vivo. On the procedure:
In A, raw data are expressed as pixel density measured by Image J. In B, fold-changes indicate down-regulation (left) or up-regulation (right) versus control tumors. A difference down or up of 2-fold versus control was used as cut-off to assign a target to any group.
For the simultaneous determination of relative levels of mouse cytokines in vivo, the Mouse XL Cytokine Array Kit from R&D Systems was used (ARY028, Minneapolis, MN). Tissue lysates were prepared by electric homogenizer in ice-cold lysis buffer and supplemented with protease inhibitor cocktail, followed by centrifugation to remove cellular debris; 150 μg protein was used for each tumor sample and nitrocellulose membrane (control, monotherapies, combination therapy). To compare the proportion of protein levels in each tumor specimen, the quantification of pixel density of each spot of the array was performed using Image J (version 1.32j) software (National Institutes of Health, Bethesda, MD, http://rsb.info.nih.gov/ij/).

The subject of assay [5] is GL-261 glioma. Description: Orthotopic syngeneic GL-261 glioma model in wildtype mice. The class given is in vivo, mouse. The method, then:
(§2) Kaplan-Meier survival curves are shown. B, C. […] B. Kaplan-Meier survival curves were analyzed via log-rank test. C. Mice surviving in (B) were re-challenged after 13 weeks after initial tumor cell injection with GL-261 cell implantation into the contralateral hemisphere. Naïve mice implanted with GL-261 cells were used as controls. Kaplan-Meier survival curves are shown. D, E. GL-261 met knock-out cells were intracranially implanted into wildtype C57/B16 mice (D) or GL-261 wildtype cells were intracranially implanted into C57/B16 Rag1−/− mice (E). […] F. Analysis of median survival between treatment groups.
as §1

Assay [6] concerns SMA-560 gliomas. Description: SMA-560 glioma in immunodeficient Rag1−/− mice. The class given is in vivo, mouse. The conditions noted are these: tepotinib 100 mg/kg daily + 10 Gy.
The test system of assay [7] is GL-261 glioma. Description: GL-261 glioma in Rag1−/− mice. The class given is in vivo, mouse. The conditions noted are these: tepotinib + 10 Gy. On the procedure:
as §2, §1

Assay [8] deals with GL-261 met knock-out cells. Description: GL-261 met knock-out glioma in wildtype mice. The class given is in vivo, mouse. The conditions noted are these: MET disrupted in tumor, tepotinib + 10 Gy. On the procedure: as §2
Knockout clones were generated as described (Ran et al., 2013; Machado et al., 2019). Briefly, two MET-specific guide RNAs (5′-[…]-3′ and 5′-[…]-3′) were cloned into pSpCas9(BB)-2A-GFP and lipofectamine (Thermo) was used to co-transfect both plasmids. […]
All in vitro and in vivo experiments reported here were performed in biological replicates, i.e., in independent experiments and with different passage numbers of cell lines. Statistical significance was assessed by two-sided unpaired t-test or two-way ANOVA with Bonferroni post-testing (GraphPad Prism). Tumor size was analyzed using the Mann-Whitney U non-parametric test. Survival was analyzed using a Kaplan-Meier survival plot followed by a log-rank (Mantel-Cox) test. […]

The subject of assay [9] is ligand-independent Hs746T tumors. The conditions noted are these: before tumor became resistant and progressed; cited from earlier work.
Assay [10] has as its system HGF-dependent U87MG tumors. The conditions noted are these: before tumor became resistant and progressed; cited from earlier work.
[11] abbreviates: combination group (tepotinib + radiotherapy).

Regarding AMG-102: HGF antibody, in the assay with glioblastoma, the “efficacy outcome in glioblastoma” value was “negative outcomes”.
With onartuzumab: MET antibody, the “efficacy outcome in glioblastoma” value in the assay on glioblastoma is “negative outcomes”.
For the compound `CN1CCC(COc2cnc(-c3cccc(Cn4nc(-c5cccc(C#N)c5)ccc4=O)c3)nc2)CC1` [tepotinib, 3-(1-{3-[5-(1-methyl-piperidin-4-ylmethoxy)-pyrimidin-2-yl]-benzyl}-6-oxo-1,6-dihydro-pyridazin-3-yl)-benzonitrile], the acute growth inhibition entry in the assay with mouse glioma cell lines [1] is “resistant to inhibitory effects of tepotinib”. The clonogenicity entry in the assay on mouse glioma cell lines [2] is “resistant to inhibitory effects of tepotinib”. Moreover, the “sensitization to inhibitory effects of irradiation in vitro” value in the assay on glioma cells (concentrations known to inhibit MET phosphorylation (100 nM)) is given as “failed to sensitize glioma cells to the inhibitory effects of irradiation”. Also, the “sensitization to irradiation in presence of exogenous HGF” value in the assay on glioma cells (with exogenous HGF (50 ng/ml)) is on record as “no sensitization to irradiation by tepotinib became apparent”. In assay [3], the invasiveness entry is given as “suppressed invasiveness in all cell lines without or with irradiation, except in low dose-irradiated SMA-540 cells”. In addition, the “reduction in CD31 immunoreactivity” value came to 2.8 fold in the assay on SMA-560 gliomas [4] (combination arm (tepotinib + radiotherapy)) and 1.8 fold with SMA-560 gliomas [4] (monotherapy arm). Moreover, in the assay with SMA-560 gliomas [4] (setting [11]), the Ki-67-positive cells result is on record as “strong decrease of Ki-67-positive cells”. The “mice alive and free from tumor at day 80” value with SMA-560 gliomas [4] (setting [11]) was “three”; in the assay on SMA-560 gliomas [4] (tepotinib group) it was “one”. The survival result is reported as “around 60 days” in the assay on SMA-560 gliomas [4] (combination with radiotherapy (single dose 12 Gy)); “around 20 days” with SMA-560 gliomas [4] (monotherapy); “prominent survival prolongation” with GL-261 glioma [5] (combination therapy (tepotinib + 10 Gy), wildtype mice). Further, the “percentage of Ki-67-stained nuclei” value in the assay with SMA-560 gliomas [4] (monotherapy group) is “remained unaffected”. The effect on survival entry with SMA-560 gliomas [4] (tepotinib alone, 100 mg/kg daily) is given as “Neither tepotinib alone nor radiotherapy alone had a significant effect on survival”. Further, the “irradiation-induced cytokines (VEGF, ICAM-1, MMP-2/-9, IL-1a, CXCL10 etc.)” value in the assay on mouse cytokines (combination with irradiation) is given as “an induction upon irradiation that was attenuated by tepotinib”. Also, the “cytokine levels in tumor tissue lysates” value in the assay on mouse cytokines (tepotinib monotherapy) is “reduced the levels of some cytokines”. In addition, the long-term survivors result with GL-261 glioma [5] (co-treatment group) was “approximately 50%”. Moreover, the “outcome of rechallenge of long-term survivors with GL-261 cells” value with GL-261 glioma [5] (rechallenge at 90 days, followed another 50 days) was “all 4 animals remained asymptomatic”. For the same compound, in the assay with SMA-560 gliomas [6], the “synergistic effect of combination therapy on survival” value is “strongly attenuated”. Further, the figures for the “synergy of irradiation with tepotinib” value (in the assay on GL-261 glioma [7]; in [8]) were “synergy with tepotinib was lost” and “synergy was also lost”, respectively. The “tumor growth inhibition and regression” value in assay [9] is “Tumor growth inhibition and regression of tumors by tepotinib was temporarily observed”; in [10], “Tumor growth inhibition and regression of tumors by tepotinib was temporarily observed”.

Source of the values: US20240277711A1, “COMPOUNDS FOR THE TREATMENT OF GLIOBLASTOMA” (Merck Patent GmbH, priority 2021, published 2024).
